Series [1] concerns Leishmania tropica. Put plainly: Antileishmanial activity against Leishmania tropica MHOM/A7/1974/SAF-K27 incubated for 48 hrs by Neubauer hemocytometer analysis. Format: functional, organism-based. The following applies: MHOM/A7/1974/SAF-K27, 48 h.
A further series concerns the target T1, Pteridine reductase 1 (Leishmania major, UniProt Q01782).
T1 sequence (Q01782 whole entry): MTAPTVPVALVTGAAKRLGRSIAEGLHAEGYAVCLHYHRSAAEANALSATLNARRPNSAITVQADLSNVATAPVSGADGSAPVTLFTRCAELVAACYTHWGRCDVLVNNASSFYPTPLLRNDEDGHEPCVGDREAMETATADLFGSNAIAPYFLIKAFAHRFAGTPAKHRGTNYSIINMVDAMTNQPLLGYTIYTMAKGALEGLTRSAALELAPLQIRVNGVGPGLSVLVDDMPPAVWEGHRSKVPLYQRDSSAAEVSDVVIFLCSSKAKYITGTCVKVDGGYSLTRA
Put plainly: Inhibition of recombinant Leishmania major PTR1 expressed in Escherichia coli BL21 using folic acid as substrate in presence of NADPH.

Series [2] can be described thus: (§1) Cytotoxicity against mouse RAW264.7 cells by alamar blue method. Format: toxicity, cell-based. The following applies: mouse, RAW264.7 cells.
Another series relates to RAW264.7. The description is as §1. Format: toxicity, cell-based. The following applies: raw264.7.
Series [3] concerns Leishmania tropica. Put plainly: Antileishmanial activity against Leishmania tropica MHOM/A7/1974/SAF-K27 incubated for 48 hrs by XTT method. Format: functional, organism-based. The following applies: MHOM/A7/1974/SAF-K27, 48 h. (In general: Tetrazolium assays rely on reduction of a dye to a coloured formazan, in cell work by metabolically active cells.)
Series [4] is described as follows: (§2) Cytotoxicity against mouse L929 cells by alamar blue method. Format: toxicity, cell-based. The following applies: mouse, L929 cells. For orientation: The colour change of resazurin is a common sign of viable cells or microbes.
Another series deals with L929. The series is described as §2. Format: toxicity, cell-based. The following applies: l929.
Series [5] has as its system DHFR (human) versus PTR1 (Leishmania major). The series is described as follows: Selectivity index, ratio of IC50 for human DHFR to IC50 for Leishmania major PTR1. Format: toxicity. The following applies: human DHFR enzyme and Leishmania major PTR1 enzyme, read-out: Ratio IC50.
A further series has as its target T2, Dihydrofolate reductase (Homo sapiens, UniProt P00374).
T2 sequence (P00374 whole entry): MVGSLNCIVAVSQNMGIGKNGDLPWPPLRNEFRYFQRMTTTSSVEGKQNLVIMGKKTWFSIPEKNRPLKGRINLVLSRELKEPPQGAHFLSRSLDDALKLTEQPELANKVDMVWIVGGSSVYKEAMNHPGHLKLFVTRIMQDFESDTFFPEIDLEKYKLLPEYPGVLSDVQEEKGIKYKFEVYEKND
Put plainly: Inhibition of human DHFR using dihydrofolate as substrate in presence of NADPH. The format is toxicity.

Series [6] concerns Leishmania infantum. Put plainly: Antileishmanial activity against Leishmania infantum MHOM/TN/1980/IPT1 incubated for 48 hrs by Neubauer hemocytometer analysis. Format: functional, organism-based. The following applies: MHOM/TN/1980/IPT1, 48 h.
Series [7] has as its system Leishmania infantum. Put plainly: Antileishmanial activity against Leishmania infantum MHOM/TN/1980/IPT1 incubated for 48 hrs by XTT method. The format is functional, organism-based. The following applies: MHOM/TN/1980/IPT1, 48 h.

The text below walks through data of ChEMBL document CHEMBL5352486, “Design, synthesis, in vitro - In vivo biological evaluation of novel thiazolopyrimidine compounds as antileishmanial agent with PTR1 inhibition” (Eur J Med Chem, 2023).

One may read the IC50 as the concentration needed to halve the response being measured.

Values after ≈ are worked out from the molar mass of the structure shown.

Turning to `CN1CCN(c2ncc3nc(NC(=O)c4ccc(Cl)cc4)sc3n2)CC1`, the IC50 is 15.6 µg/mL (≈ 40.2 µM) with Leishmania tropica [1]; 28.4 µM at Pteridine reductase 1; 14.1 µg/mL (≈ 36.3 µM) in series [2]; 15.3 µg/mL (≈ 39.4 µM) with Leishmania tropica [3]; 25.7 µg/mL (≈ 66.1 µM) in series [4]; 271 µM at Dihydrofolate reductase. The IC50 in the series on Leishmania infantum [6] came out at 15.7 µg/mL (≈ 40.3 µM); with Leishmania infantum [7] it was 15.4 µg/mL (≈ 39.7 µM). In addition, the “log10 IC50 (µg/mL)” value came out at 1.15 with RAW264.7 and 1.41 with L929. In addition, the selectivity ratio in [5] turned out to be 9.54.
